Literature values in US12083109B2, “Neurokinin antagonists and uses thereof” (California Institute of Technology, priority 2017, dated 2024).
Read-outs that look alike come from different tables or passages of the source.

Molecular target: T1, NK3R (Homo sapiens, UniProt P29371)
T1 construct: host or cells: human trial subjects
T1 sequence (P29371 1-465): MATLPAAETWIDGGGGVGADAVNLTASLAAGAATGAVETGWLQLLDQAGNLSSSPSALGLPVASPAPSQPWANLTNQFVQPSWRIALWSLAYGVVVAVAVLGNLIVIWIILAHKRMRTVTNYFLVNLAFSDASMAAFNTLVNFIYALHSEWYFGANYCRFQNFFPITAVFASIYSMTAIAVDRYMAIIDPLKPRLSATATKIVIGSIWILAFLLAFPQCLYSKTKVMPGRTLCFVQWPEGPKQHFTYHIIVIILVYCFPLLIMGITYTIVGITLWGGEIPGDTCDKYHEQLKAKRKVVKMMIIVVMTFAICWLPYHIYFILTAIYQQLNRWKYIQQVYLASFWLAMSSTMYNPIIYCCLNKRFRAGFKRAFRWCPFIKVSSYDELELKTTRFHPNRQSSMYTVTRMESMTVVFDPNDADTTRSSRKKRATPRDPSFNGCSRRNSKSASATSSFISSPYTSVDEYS
Conditions: cited from earlier work; for safety and tolerability in clinical trials: human, Phase I

CCC(NC(=O)c1c(O)c(-c2ccccc2)nc2ccccc12)c1ccccc1 (stereo not drawn) [Talnetant, 3-hydroxy-2-phenyl-N-(1-phenylpropyl)quinoline-4-carboxamide]
efficacy in schizophrenia and major depressive disorder (human trials, Phase II/III): lack of efficacy
safety and tolerability in clinical trials: exhibited safety
safety and tolerability in clinical trials (listed as talnetant): safe and well-tolerated
